Experiments:
rice (Oryza sativa) = test: Test B flooded paddy test, visual rating 0-100 (0 no effect, 100 complete control); details: Flood, 250 g ai/ha, applied to paddy water, rated after 13 to 15 days
[1] = test system: barnyardgrass (Echinochloa crus-galli); test: Test A preemergence, visual injury rating 0-100 (0 no effect, 100 complete control); assay type: in vivo
[2] = test system: ducksalad (Heteranthera limosa); test: Test B flooded paddy test, visual rating 0-100; details: Flood, 250 g ai/ha, applied to paddy water, rated after 13 to 15 days
[3] = test system: barnyardgrass (Echinochloa crus-galli); test: Test B flooded paddy test, visual rating 0-100; details: Flood, 250 g ai/ha, applied to paddy water, rated after 13 to 15 days
[4] = test system: ragweed (common ragweed, Ambrosia elatior); test: Test A preemergence, visual injury rating 0-100; assay type: in vivo
[5] = test system: foxtail, giant (giant foxtail, Setaria faberii); test: Test A preemergence, visual injury rating 0-100; assay type: in vivo
[6] = test system: pigweed (Amaranthus retroflexus); test: Test A preemergence, visual injury rating 0-100; assay type: in vivo
kochia (Kochia scoparia) [7] = test: Test A preemergence, visual injury rating 0-100; assay type: in vivo
[8] = test system: ryegrass, Italian (Italian ryegrass, Lolium multiflorum); test: Test A preemergence, visual injury rating 0-100; assay type: in vivo
[9] = test system: wheat (Triticum aestivum); test: Test A postemergence, visual injury rating 0-100; assay type: in vivo; details: 0 to 100 scale
[10] = test system: ragweed (common ragweed, Ambrosia elatior); test: Test A postemergence, visual injury rating 0-100; assay type: in vivo; details: 0 to 100 scale
[11] = test system: foxtail, giant (giant foxtail, Setaria faberii); test: Test A postemergence, visual injury rating 0-100; assay type: in vivo; details: 0 to 100 scale
corn (Zea mays) = test: Test A postemergence, visual injury rating 0-100; assay type: in vivo; details: 0 to 100 scale
[12] = test system: blackgrass (Alopecurus myosuroides); test: Test A postemergence, visual injury rating 0-100; assay type: in vivo; details: 0 to 100 scale
[13] = test system: pigweed (Amaranthus retroflexus); test: Test A postemergence, visual injury rating 0-100; assay type: in vivo; details: 0 to 100 scale
kochia (Kochia scoparia) [14] = test: Test A postemergence, visual injury rating 0-100; assay type: in vivo; details: 0 to 100 scale
[15] = test system: ryegrass, Italian (Italian ryegrass, Lolium multiflorum); test: Test A postemergence, visual injury rating 0-100; assay type: in vivo; details: 0 to 100 scale
[16] = test system: galium (catchweed bedstraw, Galium aparine); test: Test A postemergence, visual injury rating 0-100; assay type: in vivo; details: 0 to 100 scale
[17] = test system: barnyardgrass (Echinochloa crus-galli); test: Test A postemergence, visual injury rating 0-100; assay type: in vivo; details: 0 to 100 scale

Compound | Rice plant response rating (0 to 100 scale) (rice (Oryza sativa)) | Barnyardgrass plant response rating (0 to 100 scale) ([1]; 125 g ai/ha) | Barnyardgrass plant response rating (0 to 100 scale) ([1]; 500 g ai/ha) | Ducksalad plant response rating (0 to 100 scale) [2] | Barnyardgrass plant response rating (0 to 100 scale) [3] | Ragweed plant response rating (0 to 100 scale) ([4]; 125 g ai/ha) | Ragweed plant response rating (0 to 100 scale) ([4]; 500 g ai/ha) | Foxtail, Giant plant response rating (0 to 100 scale) ([5]; 125 g ai/ha) | Foxtail, Giant plant response rating (0 to 100 scale) ([5]; 500 g ai/ha) | Pigweed plant response rating (0 to 100 scale) ([6]; 125 g ai/ha) | Pigweed plant response rating (0 to 100 scale) ([6]; 500 g ai/ha) | Kochia plant response rating (0 to 100 scale) (kochia (Kochia scoparia) [7]; 125 g ai/ha) | Kochia plant response rating (0 to 100 scale) (kochia (Kochia scoparia) [7]; 500 g ai/ha) | Ryegrass, Italian plant response rating (0 to 100 scale) ([8]; 125 g ai/ha) | Ryegrass, Italian plant response rating (0 to 100 scale) ([8]; 500 g ai/ha) | Wheat plant response rating ([9]; 125 g ai/ha) | Wheat plant response rating ([9]; 500 g ai/ha) | Ragweed plant response rating ([10]; 125 g ai/ha) | Ragweed plant response rating ([10]; 500 g ai/ha) | Foxtail, Giant plant response rating ([11]; 125 g ai/ha) | also measured
COc1cc(C2CC(C)=[N+]([O-])C2C(=O)Nc2cccc(F)c2F)cc(C)n1 (racemic) [Compound 57] | 0 | 90 | 100 | 0 | 55 | 0 | 30 | 90 | 100 | 0 | 20 | 60 | 60 | 20 | 90 | 20 | 90 | 0 | 0 | 40 | Foxtail, Giant plant response rating ([11]; 500 g ai/ha): 90; Corn plant response rating (corn (Zea mays); 125 g ai/ha): 60; Corn plant response rating (corn (Zea mays); 500 g ai/ha): 90; Blackgrass plant response rating ([12]; 125 g ai/ha): 80; Blackgrass plant response rating ([12]; 500 g ai/ha): 90; Pigweed plant response rating ([13]; 125 g ai/ha): 0; Pigweed plant response rating ([13]; 500 g ai/ha): 0; Kochia plant response rating (kochia (Kochia scoparia) [14]; 125 g ai/ha): 0; Kochia plant response rating (kochia (Kochia scoparia) [14]; 500 g ai/ha): 30; Ryegrass, Italian plant response rating ([15]; 125 g ai/ha): 40; Ryegrass, Italian plant response rating ([15]; 500 g ai/ha): 90; Galium plant response rating ([16]; 125 g ai/ha): 30; Galium plant response rating ([16]; 500 g ai/ha): 40; Barnyardgrass plant response rating ([17]; 125 g ai/ha): 80; Barnyardgrass plant response rating ([17]; 500 g ai/ha): 80
CC1=[N+]([O-])C(C(=O)Nc2cccc(F)c2F)C(c2cccc(Oc3ccc(F)cc3)c2)C1 (racemic) [Compound 58] | 0 | 10 | 90 | 0 | 0 | 0 | 90 | 40 | 90 | 0 | 0 | 0 | 0 | 10 | 80 | 10 | 20 | 0 | 0 | 30 | Foxtail, Giant plant response rating ([11]; 500 g ai/ha): 70; Corn plant response rating (corn (Zea mays); 125 g ai/ha): 0; Corn plant response rating (corn (Zea mays); 500 g ai/ha): 40; Blackgrass plant response rating ([12]; 125 g ai/ha): 20; Blackgrass plant response rating ([12]; 500 g ai/ha): 70; Pigweed plant response rating ([13]; 125 g ai/ha): 0; Pigweed plant response rating ([13]; 500 g ai/ha): 30; Kochia plant response rating (kochia (Kochia scoparia) [14]; 125 g ai/ha): 0; Kochia plant response rating (kochia (Kochia scoparia) [14]; 500 g ai/ha): 20; Ryegrass, Italian plant response rating ([15]; 125 g ai/ha): 20; Ryegrass, Italian plant response rating ([15]; 500 g ai/ha): 50; Galium plant response rating ([16]; 125 g ai/ha): 30; Galium plant response rating ([16]; 500 g ai/ha): 50; Barnyardgrass plant response rating ([17]; 125 g ai/ha): 10; Barnyardgrass plant response rating ([17]; 500 g ai/ha): 30

From patent publication US11498899B2, “Nitrone herbicides” (FMC Corporation, priority 2016, dated 2022)
